Assay results published in patent publication US20240293439A1, “TREATMENT REGIMENS” (NuCana plc, priority 2017, published 2024).
“And” between values parts separate entries of the source, which are not always exact repeats. Equal entries are not always repeated. “Also recorded” adds a separate entry of the source.

Tests used:
[1] = in vivo
Experimental: The patients received NUC-3373, administered as a 30-minute to 2 hour intravenous injection on days 1, 8, 15 and 22 of a 28-day cycle regimen.
The cohorts treated to date received 125 mg/m^2, 250 mg/m^2, 500 mg/m^2 or 750 mg/m^2 NUC-3373 per administration.
Pharmacokinetic analysis of blood samples of the patients was then carried out.
Blood samples were collected on days 1 and 15 of a treatment cycle:
The blood samples should arrive in the lab within 2 hours of collection. Collect 8 ml of blood into CPT tubes (blood tubes should be centrifuged within 2 hours of blood collection). Remix the blood sample immediately prior to centrifugation by gently inverting the tube 8 to 10 times. Set centrifuge so that the start and finish is set to a slow acceleration (without break). Centrifuge at 18° C. for 20 minutes at 1,500 g. Remove sample from the centrifuge carefully. This will result in five layers: plasma (first); whitish cell (PBMC) layer [second]; polyester gel [third]; density solution [fourth] and, remaining granulocytes and RBCs [fifth]. Aspirate approximately half of the plasma without disturbing the cell layer. Collect the PBMC layer with a Pasteur Pipette and transfer to a 50 ml tube and add cold PBS (4° C.) to a final volume of 40 ml. Divide between two 50 ml tubes (20 ml per tube) and centrifuge for 5 minutes at 4° C. at 1,500 g. […]

[2] = NuTide:301 Phase 1 study: pharmacokinetic analysis of NUC-3373 in blood plasma; assay type: in vivo; conditions: human, iv, patients with advanced solid tumors, 125-750 mg/m^2, 1:1 mixture of S and R epimers
Experimental: (§1) All patients have metastatic spread.
NUC-3373 is presented as a single dose intravenous injection in a clear vial containing 250 mg/ml NUC-3373 in a solution of dimethylacetamide (DMA) and normal saline in the ratio of 80:20. The product is a clear yellow solution, free from visible particles.
In the study all patients were treated with a 1:1 mixture of NUC-3373 S and R epimers.
Centrifuge the 4 ml blood sample at 1,200 g at 18° C. for 10 minutes. Using a sterile plastic pipette (pastette), remove the resulting plasma and transfer ˜1.0 ml plasma into each of 2 cryovials (2 ml).

[3] = NuTide:301 study: detection of toxic byproducts FBAL and dhFU by UPLC-MS/MS after NUC-3373 administration; assay type: in vivo, patients; conditions: at the doses studied
Experimental: as §1
(§2) Vortex-mix for 30 seconds. Leave sample on ice for 15 minutes.
UPLC-MS/MS was used to detect dhFU and FBAL

[4] = tested on: thymidylate synthase (TS); experiment: Intracellular dTMP, TS and dUMP levels in PBMCs of treated subjects (UPLC-MS, Western blot); assay type: in vivo, patients; conditions: for intracellular TS level and/or activity / intracellular dTMP level: cells (PBMCs) of treated subjects
Experimental: Remove sample from the centrifuge carefully.
as §2
UPLC-MS for was used to detect dTMP Western blot was used to detect TS.

[5] = NuTide:301 clinical trial: occurrence of hand-foot syndrome; assay type: in vivo; conditions: 36 patients treated with NUC-3373, so far
Text: as §1

[6] = formal dog toxicology studies; cited from earlier work
[7] = comparison value; cited from earlier work
[8] = patients treated with 5FU; cited from earlier work
[9] = target: T1, dihydropyrimidine dehydrogenase (DPD) (Homo sapiens, UniProt Q12882); conditions: catabolism in the liver; cited from earlier work
T1 construct: This is balanced by catabolism by dihydropyrimidine dehydrogenase (DPD) in the liver; host or cells: liver (of patients)
T1 sequence (Q12882 4-1025): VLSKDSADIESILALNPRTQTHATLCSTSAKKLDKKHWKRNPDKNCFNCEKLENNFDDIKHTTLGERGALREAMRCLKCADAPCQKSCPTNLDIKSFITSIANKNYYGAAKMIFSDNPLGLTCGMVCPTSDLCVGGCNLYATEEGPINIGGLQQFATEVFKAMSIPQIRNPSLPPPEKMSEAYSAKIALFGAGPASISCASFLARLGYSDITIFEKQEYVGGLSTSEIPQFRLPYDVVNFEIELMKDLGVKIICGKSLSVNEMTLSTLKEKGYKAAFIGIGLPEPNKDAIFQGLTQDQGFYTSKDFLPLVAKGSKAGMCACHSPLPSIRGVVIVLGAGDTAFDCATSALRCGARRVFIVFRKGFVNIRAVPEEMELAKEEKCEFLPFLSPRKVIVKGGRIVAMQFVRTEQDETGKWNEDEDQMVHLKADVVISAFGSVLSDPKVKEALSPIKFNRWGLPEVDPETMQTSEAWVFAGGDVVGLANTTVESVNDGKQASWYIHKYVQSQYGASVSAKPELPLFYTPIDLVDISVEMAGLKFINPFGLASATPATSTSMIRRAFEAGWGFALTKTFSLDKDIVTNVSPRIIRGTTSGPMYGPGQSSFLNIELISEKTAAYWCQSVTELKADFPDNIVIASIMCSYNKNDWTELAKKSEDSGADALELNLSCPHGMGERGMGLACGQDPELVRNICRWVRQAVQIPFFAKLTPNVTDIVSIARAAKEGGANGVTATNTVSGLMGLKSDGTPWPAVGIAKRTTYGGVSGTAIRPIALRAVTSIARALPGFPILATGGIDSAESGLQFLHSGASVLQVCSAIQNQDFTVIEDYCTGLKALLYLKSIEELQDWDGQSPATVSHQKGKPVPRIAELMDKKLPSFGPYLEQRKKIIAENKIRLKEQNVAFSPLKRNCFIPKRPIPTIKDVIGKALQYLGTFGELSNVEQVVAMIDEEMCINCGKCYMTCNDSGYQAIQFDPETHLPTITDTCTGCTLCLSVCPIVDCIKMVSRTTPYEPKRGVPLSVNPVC

SMILES | half-life of intracellular FUDR monophosphate ([1]; human) [h] | detectability of intracellular FUDR monophosphate at late time point [1] | half-life [2] [h] | dihydrofluorouracil (dhFU) detected following NUC-3373 administration [3] | α-fluoro-β-alanine (FBAL) detected following NUC-3373 administration [3] | intracellular TS level and/or activity [4] | intracellular dTMP level [4] | intracellular dUMP level ([4]; cells of treated subjects) | patients who developed hand-foot syndrome [5] | tolerability compared with 5FU [6] | plasma half-life of 5FU [7] [min] | patients developing hand-foot syndrome [8] | fraction of 5-fluorouracil broken down by DPD [9]
O=c1[nH]c(=O)n([C@H]2C[C@H](O)[C@@H](COP(=O)(O)O)O2)cc1F [FUDR monophosphate] | 14.9 | still detectable |  |  |  |  |  |  |  |  |  |  | 
C[C@H](NP(=O)(OC[C@H]1O[C@@H](n2cc(F)c(=O)[nH]c2=O)CC1O)Oc1cccc2ccccc12)C(=O)OCc1ccccc1 (stereo partly drawn) [NUC-3373, 5-fluoro-2′-deoxyuridine-5′-O-[1-naphthyl (benzoxy-L-alaninyl)] phosphate] |  |  | 9.7 | undetectable | undetectable; also recorded: very low levels | deplete | deplete | increased accumulation | none | significantly better tolerated than 5FU |  |  | 
O=c1[nH]cc(F)c(=O)[nH]1 [5FU, 5-fluorouracil] |  |  |  |  |  | not observed | not observed |  |  |  | 8 to 14 | 30-60% and 40-60% | More than 85%
